Here are results for 24 compounds from patent publication US11466013B2 (Betta Pharmaceuticals Co., LTD, priority 2018, dated 2022).

Structures are written as SMILES.

One test deals with ERK1 (Homo sapiens, UniProt P27361). Nature of the test: Kinase assay (Caliper, FAM-labeled peptide), ERK1. The class given is biochemical. As to the method:
(§1) The compound was diluted to the desired concentration with DMSO, transferred 100 μL to a 96-well plate, and performed a gradient dilution 10 μL of compound from each well was taken and mixed with 90 μL of kinase buffer, and then transferred 5 μL from each well to a 384-well plate. Kinase and FAM-labeled peptide and ATP were added to 1× kinase alkaline buffer to obtain 2.5× enzyme solution and 2.5× peptide solution, 10 μL of 2.5× enzyme solution was added to the 384-well assay plate. After incubating for 10 minutes at room temperature, 10 μL of 2.5× peptide solution was added to the 384-well plate. After reacting for a specific time at […], 25 μL of termination buffer was added to stop reaction. After reading the collected data on Caliper, the data was converted to inhibition percentage. Inhibition percentage=(maximum value−conversion value)/(maximum value−minimum value)*100.
(§2) The “maximum” is the DMSO control, the “minimum” indicates the low control.
(§3) Graphpad Prism software was used to perform curve fitting and obtain IC50 value.

A further test addresses ERK2 (Homo sapiens, UniProt P28482). Description: Kinase assay (Caliper, FAM-labeled peptide), ERK2. The class given is biochemical. As to the method:
as §1, §2, §3

ERK1, sequence (P27361 whole entry): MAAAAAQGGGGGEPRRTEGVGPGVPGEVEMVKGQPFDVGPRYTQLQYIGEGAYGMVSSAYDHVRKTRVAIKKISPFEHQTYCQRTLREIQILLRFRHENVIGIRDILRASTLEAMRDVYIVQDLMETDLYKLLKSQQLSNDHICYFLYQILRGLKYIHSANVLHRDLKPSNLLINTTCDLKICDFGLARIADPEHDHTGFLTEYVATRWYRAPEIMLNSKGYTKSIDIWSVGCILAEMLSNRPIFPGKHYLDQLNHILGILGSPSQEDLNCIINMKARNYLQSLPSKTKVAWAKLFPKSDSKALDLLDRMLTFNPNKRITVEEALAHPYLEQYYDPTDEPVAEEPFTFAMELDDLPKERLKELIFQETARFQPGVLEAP
ERK2, sequence (P28482 whole entry): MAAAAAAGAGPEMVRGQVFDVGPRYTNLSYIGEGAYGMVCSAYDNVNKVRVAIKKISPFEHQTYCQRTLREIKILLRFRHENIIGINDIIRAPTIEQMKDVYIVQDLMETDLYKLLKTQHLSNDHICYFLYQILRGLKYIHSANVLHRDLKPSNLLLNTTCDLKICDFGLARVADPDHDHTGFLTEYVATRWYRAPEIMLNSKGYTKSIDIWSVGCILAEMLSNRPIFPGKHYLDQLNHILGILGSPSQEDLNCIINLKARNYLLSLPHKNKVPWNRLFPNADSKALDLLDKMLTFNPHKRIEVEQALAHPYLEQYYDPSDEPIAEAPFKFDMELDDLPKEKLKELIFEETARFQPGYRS

Turning to `Cc1cnc(Nc2cccc3c2OCO3)nc1-c1cc2n(c1)CCN(Cc1cc(F)ccc1CO)C2=O` [Example 133, 7-(2-(benzo[D][1,3]dioxocyclopentene-4-ylamino)-5-methylpyrimidin-4-yl)-2-(5-fluoro-2-(hydroxymethyl)benzyl)-3,4-dihydropyrrolo[1,2-a] pyrazine-1(2H)-one], the IC50 against ERK1 and against ERK2 was 0.7 nM throughout.
Turning to `O=C1c2cc(-c3cc(NC4CC(F)(F)C4)ncc3Cl)cn2CCN1Cc1cc(F)ccc1CO` [Example 128, 7-(5-chloro-2-((3,3-difluorocyclobutyl)amino)pyridine-4-yl)-2-(5-fluoro-2 (hydroxymethyl)benzyl)-3,4-dihydropyrrolo[1,2-a] pyrazine-1(2H)-one], the figures for the IC50 against ERK1 and at ERK2 were 0.65 nM and 0.89 nM, respectively.
As to `CC(C)Nc1cc(-c2cc3n(c2)CCN(Cc2ccccc2CO)C3=O)c(Cl)cn1` [Example 14, 7-(5-chloro-2-(isopropylamino)pyridin-4-yl)-2-(2-(hydroxymethyl)benzyl)-3,4-dihydropyrrolo[1,2-a] pyrazine-1(2H)-one], the IC50 on ERK1 came to 0.7 nM; against ERK2, 0.6 nM.
As to `COC[C@H]1Cn2cc(-c3cc(NC(=O)c4csc(C)n4)ncc3Cl)cc2C(=O)N1Cc1cc(F)ccc1CO` [Example 117, (R)-N-(5-chloro-4-(2-(5-fluoro-2-(hydroxymethyl)benzyl)-3-(methoxymethyl)-1-oxo-1,2,3,4-tetrahydropyrrolo [1,2-a]pyrazin-7-yl)pyridine-2-yl)-2-methylthiazol-4-formamide], the IC50 against ERK1 came out at 1.2 nM; against ERK2, 1 nM.
Regarding `O=C1c2cc(-c3cc(NC4CCOC4)ncc3Cl)cn2CCN1Cc1cc(F)ccc1CO` (stereo not shown) [Example 31, 7-(5-Chloro-2-((tetrahydrofuran-3-yl)amino)pyridin-4-yl)-2-(5-fluoro-2-(hydroxymethyl)benzyl)-3,4-dihydropyrrolo[1,2-a]pyrazine-1(2H)-one], the IC50 against ERK1 was found to be 0.3 nM; on ERK2, 0.32 nM.
In the case of `COC[C@H]1Cn2cc(-c3cc(NC4COC(C)(C)C4)ncc3Cl)cc2C(=O)N1Cc1cc(F)ccc1CO` (stereo partly drawn) [Example 79, (3R)-7-(5-chloro-2-((5,5-dimethyltetrahydrofuran-3-yl)amino)pyridine-4-yl)-2-(5-fluoro-2-(hydroxymethyl)benzyl)-3-(methoxymethyl)-3,4-dihydropyrrolo[1,2-a] pyrazine-1(2H)-one], the figures for the IC50 on ERK1 and on ERK2 were 0.36 nM and 0.39 nM, respectively.
In the case of `COC[C@H]1Cn2cc(-c3cc(NC4CCC4)ncc3Cl)cc2C(=O)N1Cc1cc(F)ccc1CO` [Example 70, (R)-7-(5-chloro-2-(cyclobutylamino)pyridin-4-yl)-2-(5-fluoro-2-(hydroxymethyl)benzyl)-3-(methoxymethyl)-3,4-dihydropyrrolo[1,2-a] pyrazine-1(2H)-one], the IC50 worked out at 1.8 nM against ERK1 and 2 nM on ERK2.
With `COC[C@H]1Cn2cc(-c3ccnc(NC(C)C)n3)cc2C(=O)N1Cc1cc(F)ccc1CO` [Example 127, (R)-2-(5-fluoro-2-(hydroxymethyl)benzyl)-7-(2-(isopropylamino)pyrimidin-4-yl)-3-(methoxymethyl)-3.4-dihydropyrrolo[1,2-a] pyrazine-1(2H)-one], the IC50 against ERK1 came out at 1.6 nM; against ERK2 it was 0.35 nM.
Turning to `COC[C@H]1Cn2cc(-c3cc(NC4CCC(OC)CC4)ncc3Cl)cc2C(=O)N1Cc1cc(F)ccc1CO` (stereo partly drawn) [Example 111, (R)-7-(5-chloro-2-((4-methoxycyclohexyl)amino)pyridine-4-yl)-2-(5-fluoro-2-(hydroxymethyl)benzyl)-3-(methoxymethyl)-3,4-dihydropyrrolo[1,2-a] pyrazine-1(2H)-one], the IC50 against ERK1 and at ERK2 was 0.9 nM throughout.
Turning to `Cc1cnc(Nc2cccc3c2OCCO3)nc1-c1cc2n(c1)CCN(Cc1cc(F)ccc1CO)C2=O` [Example 135, 7-(2-((2,3-dihydrobenzo[b][1,4]dioxane-5-yl)amino)-5-methylpyrimidin-4-yl)-2-(5-fluoro-2-(hydroxymethyl)benzyl)-3,4-dihydropyrrolo[1,2-a] pyrazine-1(2H)-one], the results for the IC50 on ERK1 and against ERK2 were 1.6 nM and 0.7 nM, respectively.
On to `CC(C)Nc1cc(-c2cc3n(c2)CCN(Cc2cc(F)c(F)cc2CO)C3=O)c(Cl)cn1` [Example 19, 7-(5-chloro-2-(isopropylamino)pyridine-4-yl)-2-(4,5-difluoro-2-(hydroxymethyl)benzyl)-3,4-dihydropyrrolo[1,2-a]pyrazine-1(2H)-one], for which the IC50 against ERK1 stood at 0.3 nM; against ERK2, 0.6 nM.
With `CCNc1ncc(Cl)c(-c2cc3n(c2)C[C@H](COC)N(Cc2cc(F)ccc2CO)C3=O)n1` [Example 131, (R)-7-(5-chloro-2-(ethylamino)pyrimidin-4-yl)-2-(5-fluoro-2-(hydroxymethyl)benzyl)-3-(methoxymethyl)-3,4-dihydropyrrolo[1,2-a] pyrazine-1(2H)-one], the IC50 against ERK1 was 0.83 nM; against ERK2, 1.4 nM.
Consider `Cc1ccccc1Nc1ncc(C)c(-c2cc3n(c2)CCN(Cc2cc(F)ccc2CO)C3=O)n1` [Example 49], for which the results for the IC50 against ERK1 and on ERK2 were 0.9 nM and 0.8 nM, respectively.
As for `Cc1cnc(NC2COC2)nc1-c1cc2n(c1)CCN(Cc1cc(F)ccc1CO)C2=O` [Example 32, 2-(5-Fluoro-2-(hydroxymethyl)benzyl)-7-(5-methyl-2-(oxetan-3-ylamino)pyrimidine-4-yl)-3,4-dihydropyrrolo[1,2-a]pyrazine-1(2H)-one], the results for the concentration for half-maximal inhibition (IC50) against ERK1 and at ERK2 were 0.44 nM and 0.27 nM, respectively.
Take `Cc1cnc(NC2COC2)nc1-c1c[nH]c(C(=O)NCc2cc(F)ccc2CO)c1` [Example 122, N-(5-fluoro-2-(hydroxymethyl)benzyl)-4-(5-methyl-2-(oxacyclobutane-3-ylamino)pyrimidin-4-yl)-1h-pyrrole-2-formamide]: the concentration for half-maximal inhibition (IC50) was found to be 0.65 nM on ERK1 and 0.71 nM against ERK2.
For the compound `COC[C@H]1Cn2cc(-c3cc(NC(C)C)ncc3Cl)cc2C(=O)N1Cc1cc(F)ccc1CO` [Example 34, (R)-7-(5-chloro-2-(isopropylamino)pyridin-4-yl)-2-(5-fluoro-2-(hydroxymethyl)benzyl)-3-(methoxymethyl)-3,4-dihydropyrrolo[1,2-a]pyrazine-1(2H)-one], the IC50 on ERK1 amounted to 0.2 nM; at ERK2, 0.4 nM.
At ERK2, `COC[C@H]1Cn2cc(-c3cc(Nc4c(C)cnn4C)ncc3Cl)cc2C(=O)N1Cc1cc(F)ccc1CO` [Example 97, (R)-7-(5-chloro-2-((1,4-dimethyl-1h-pyrazole-5-yl)amino)pyridine-4-yl)-2-(5-fluoro-2-(hydroxymethyl)benzyl)-3-(methoxymethyl)-3,4-dihydropyrrolo[1,2-a] pyrazine-1(2H)-one] returned an IC50 of 0.97 nM.
On to `COC[C@H]1Cn2cc(-c3cc(NC4CC(F)(F)C4)ncc3Cl)cc2C(=O)N1Cc1cc(F)ccc1CO` [Example 63, (R)-7-(5-chloro-2-((3,3-difluorocyclobutyl)amino)pyridine-4-yl)-2-(5-fluoro-2-(hydroxymethyl)benzyl)-3-(methoxymethyl)-3,4-dihydropyrrolo[1,2-a] pyrazine-1(2H)-one], for which the IC50 against ERK1 came out at 1.5 nM; against ERK2, 1.6 nM.
On to `COC[C@H]1Cn2cc(-c3cc(NC4CC4)ncc3Cl)cc2C(=O)N1Cc1cc(F)ccc1CO` [Example 74, (R)-7-(5-chloro-2-(cyclopropylamino)pyridin-4-yl)-2-(5-fluoro-2-(hydroxymethyl)-benzyl)-3-(methoxymethyl)-3,4-dihydropyrrolo[1,2-a] pyrazine-1(2H)-one], for which the IC50 against ERK1 stood at 1.2 nM; on ERK2, 1.3 nM.
As to `CCc1ccccc1Nc1ncc(C)c(-c2cc3n(c2)CCN(Cc2cc(F)ccc2CO)C3=O)n1` [Example 132, 7-(2-((2-Ethylphenyl)amino)-5-methylpyrimidin-4-yl)-2-(5-fluoro-2-(hydroxymethyl)benzyl)-3,4-dihydropyrrolo[1,2-a] pyrazine-1(2H)-one], the concentration for half-maximal inhibition (IC50) at ERK1 was determined as 0.8 nM; against ERK2, 0.9 nM.
The corresponding values for `CC(C)Nc1cc(-c2cc3n(c2)CC2(CN(C)C2)CN(Cc2ccccc2CO)C3=O)c(Cl)cn1` [Example 25] are 1.3 nM and 0.84 nM.
As to `COC[C@H]1Cn2cc(-c3cc(NC(C)=O)ncc3Cl)cc2C(=O)N1Cc1cc(F)ccc1CO` [Example 112, (R)-N-(5-chloro-4-(2-(5-fluoro-2-(hydroxymethyl)benzyl)-3-(methoxymethyl)-1-oxo-1,2,3,4-tetrahydropyrrolo [1,2-a]pyrazin-7-yl)pyridine-2-yl) acetamide], the IC50 against ERK1 was determined as 0.4 nM; on ERK2 it was 1 nM.
In the case of `CC(C)Nc1cc(-c2cnc(C(=O)NCc3ccc(F)cc3CO)s2)c(Cl)cn1` [Example 4, 5-(5-chloro-2-(isopropylamino)pyridin-4-yl)-N-(4-fluoro-2-(hydroxymethyl)benzyl) thiazole-2-formamide], the IC50 at ERK1 and at ERK2 was 1.8 nM in each case.
In turn, `COC[C@H]1Cn2cc(-c3c(Cl)cnc(Nc4ccnn4C)c3F)cc2C(=O)N1Cc1cc(F)ccc1CO` [Example 47, (H)-7-(5-chloro-3-fluoro-2-((1-methyl-1H-pyrazol-5-yl)amino)pyridin-4-yl)-2-(5-fluoro-2-(hydroxymethyl)benzyl)-3-(methoxymethyl)-3,4-dihydropyrrolo[1,2-a]pyrazine-1(2H)-ketone] gave an IC50 at ERK2 of 0.9 nM. That is a sub-nanomolar value.

In general, IC50 refers to the point on the concentration scale where inhibition reaches its midpoint.
